Assay results taken from patent US20080194585A1, “Fungicidal Pyrazine Derivatives” (priority 2005, published 2008).
Marks after values point to notes of the source that are not given here.

Columns and labels:
[1] = test system: Puccinia recondita f. sp. tritici; test: Test K: wheat leaf rust, preventive spray on wheat seedlings; settings: for pest or weed control at 200 ppm: Puccinia recondita, in Triticum aestivum, 192 h, read-out: Test K disease control rating
Botrytis cinerea = test: Test E: tomato botrytis, preventive spray on tomato seedlings; settings: for pest or weed control at 200 ppm: Botrytis cinerea, in Solanum lycopersicum, topical, 72 h, read-out: Test E disease control rating
Septoria tritici = test: Test J: wheat leaf blotch, preventive spray on wheat seedlings; format: in vivo
Excerpt: A dash (-) indicates no test results.

Plasmopara viticola = test: Test D: grape downy mildew, spray after inoculation of grape seedlings; format: in vivo; settings: for pest or weed control at 200 ppm: Plasmopara viticola, 168 h, read-out: Test D disease control rating
Excerpt: Upon removal, disease ratings were made. […] A dash (-) indicates no test results.

Rhizoctonia oryzae = test: Test G: turf brown patch, preventive spray on creeping bent grass seedlings
Description: (the causal agent of turf brown patch) and incubated in a saturated atmosphere at 27° C. for 24 h, and then moved to a growth chamber at 27° C. for 5 days, after which disease ratings were made.

fusarium graminearium = test: Test I: wheat head scab, preventive spray on wheat seedlings; settings: for pest or weed control at 200 ppm: Fusarium, in Triticum aestivum, topical, 192 h, read-out: Test I disease control rating, 200 ppm
Description: (the causal agent of wheat head scab) and incubated in a saturated atmosphere at 20° C. for 72 h, and then moved to a growth chamber at 22° C. for 5 days, after which disease ratings were made.

[2] = test system: Erysiphe graminis f. sp. tritici; test: Test L: wheat powdery mildew, preventive spray on wheat seedlings; settings: for pest or weed control at 200 ppm: Blumeria graminis, in Triticum aestivum, 168 h, read-out: Test L disease control rating, 200 ppm
Sclerotinia sclerotiorum = test: Test C: cucumber white mold, preventive spray on cucumber seedlings; settings: for pest or weed control at 200 ppm: Sclerotinia sclerotiorum, in Cucumis sativus, 168 h, read-out: Test C disease control rating, 200 ppm
[3] = test system: Colletotrichum orbiculare; test: Test B: cucumber Colletotrichum anthracnose, preventive spray on cucumber seedlings; settings: for pest or weed control at 200 ppm: Colletotrichum orbiculare, in Cucumis sativus, 144 h, read-out: Test B disease control rating, 200 ppm
Septoria nodorum = test: Test H: wheat glum blotch, preventive spray on wheat seedlings; settings: for pest or weed control at 200 ppm: Parastagonospora nodorum, in Triticum aestivum, topical, 168 h, read-out: Test H disease control rating, 200 ppm
Description: (the causal agent of wheat glum blotch) and incubated in a saturated atmosphere at 20° C. for 48 h, and then moved to a growth chamber at 22° C. for 5 days, after which disease ratings were made.

Phytophthora infestans = test: whole plant or invertebrate; format: in vivo; settings: for pest or weed control at 200 ppm: Phytophthora infestans, in Solanum lycopersicum, topical, 144 h, read-out: Test F disease control rating
Pythium aphanidermatum = test: Test A: bluegrass pythium blight, preventive spray on bluegrass seedlings; settings: for pest or weed control at 200 ppm: Pythium aphanidermatum, 120 h, read-out: Test A disease control rating

Row | Structure (SMILES) | Test K disease control rating ([1]; 200 ppm) | Test E disease control rating (Botrytis cinerea; 200 ppm) | Test D disease control rating (Plasmopara viticola; 200 ppm) | Test I disease control rating (fusarium graminearium; 200 ppm) | Test L disease control rating ([2]; 200 ppm) | Test C disease control rating (Sclerotinia sclerotiorum; 200 ppm) | Test B disease control rating ([3]; 200 ppm) | Test H disease control rating (Septoria nodorum; 200 ppm) | Test F disease control rating (Phytophthora infestans; 200 ppm) | Test A disease control rating (Pythium aphanidermatum; 200 ppm) | Test G disease control rating (Rhizoctonia oryzae; 200 ppm) | also measured
1 | CC(C)Cn1c(C(C)c2ccccc2)c(Cl)nc(-n2cccn2)c1=O (stereo not shown) [compound 132] | – | – | – | – | – | – | – | – | – | – | – | Test K disease control rating ([1]; 40 ppm (*)): 0* %; Test E disease control rating (Botrytis cinerea; 40 ppm (*)): 0* %; Test J disease control rating (Septoria tritici; 40 ppm (*)): 9* %; Test D disease control rating (Plasmopara viticola; 40 ppm (*)): 0* %; Test G disease control rating (Rhizoctonia oryzae; 40 ppm (*)): 0* %; Test I disease control rating (fusarium graminearium; 40 ppm (*)): 0* %; Test L disease control rating ([2]; 40 ppm (*)): 0* %; Test C disease control rating (Sclerotinia sclerotiorum; 40 ppm (*)): 0* %; Test B disease control rating ([3]; 40 ppm (*)): 0* %; Test H disease control rating (Septoria nodorum; 40 ppm (*)): 0* %; Test F disease control rating (Phytophthora infestans; 40 ppm (*)): 0* %; Test A disease control rating (Pythium aphanidermatum; 40 ppm (*)): 0* %
2 | CC(C)Cn1c(-c2c(F)cccc2F)c(Cl)nc(-c2cncn2C)c1=O [compound 83] | 79% | 0% | 0% | 0% | 0% | 64% | 9% | 0% | 47% | 0% | – | Test J disease control rating (Septoria tritici; 200 ppm): 18%
3 | CCC(C)Cn1c(-c2c(F)cccc2F)c(Cl)nc(-n2ccnc2C)c1=O (stereo not shown) [compound 69] | – | – | 0% | 0% | – | 0% | – | – | 0% | 0% | – | Test K disease control rating ([1]; 40 ppm (*)): 61* %; Test E disease control rating (Botrytis cinerea; 40 ppm (*)): 0* %; Test J disease control rating (Septoria tritici; 40 ppm (*)): 62* %; Test G disease control rating (Rhizoctonia oryzae; 40 ppm (*)): 0* %; Test L disease control rating ([2]; 40 ppm (*)): 0* %; Test H disease control rating (Septoria nodorum; 40 ppm (*)): 0* %
4 | CC(C)Cn1c(-c2c(F)cccc2F)c(Cl)nc(-c2cn(C)cn2)c1=O [Compound 85, 5-Chloro-6-(2,6-difluorophenyl)-1-(2-methylpropyl)-3-(1-methyl-1H-imidazol-4-yl)-2(1H)-pyrazinone] | – | – | – | – | – | – | – | – | – | – | – | pest or weed control at 200 ppm [1]: 99%; pest or weed control at 200 ppm (Botrytis cinerea): 100%; pest or weed control at 200 ppm (Septoria tritici; Zymoseptoria tritici, 528 h, 200 ppm, read-out: Test J disease control rating): 100%; pest or weed control at 200 ppm (Plasmopara viticola; 200 ppm): 0%; pest or weed control at 200 ppm (fusarium graminearium): 55%; pest or weed control at 200 ppm [2]: 0%; pest or weed control at 200 ppm (Sclerotinia sclerotiorum): 95%; pest or weed control at 200 ppm [3]: 80%; pest or weed control at 200 ppm (Septoria nodorum): 97%; pest or weed control at 200 ppm (Phytophthora infestans): 0%; pest or weed control at 200 ppm (Pythium aphanidermatum): 0%
5 | CC(C)Cn1c(-c2ccc3ccccc3c2)c(Cl)nc(-n2cccn2)c1=O [compound 90] | 0% | 0% | 16% | 0% | 0% | 63% | 0% | 0% | 0% | 0% | – | Test J disease control rating (Septoria tritici; 200 ppm): 0%
6 | CC(C)Cn1c(-c2ccc(F)cc2Cl)c(Cl)nc(-n2cncn2)c1=O [compound 51] | 100% | 100% | 0% | 94% | 63% | 99% | 98% | 100% | 0% | 0% | 31% | –
7 | Cn1c(-c2ccccc2F)c(Cl)nc(-n2cccn2)c1=O [compound 14] | 0% | 79% | 0% | 0% | 21% | 0% | 0% | 0% | 27% | 0% | 0% | –
8 | CC(C)Cn1c(-c2c(Cl)cccc2Cl)c(Cl)nc(-n2cncn2)c1=O [compound 40] | 99% | 100% | 0% | 0% | 21% | 0% | 0% | 99% | 0% | 0% | 65% | –
9 | CCC(C)Cn1c(-c2c(F)cc(F)cc2F)c(Cl)nc(-n2cncn2)c1=O (stereo not shown) [compound 20] | 100% | 100% | 0% | 0% | 98% | 0% | 0% | 98% | 30% | 0% | 26% | –
10 | CC(C)Cn1c(-c2cccc(F)c2F)c(Cl)nc(-n2cncn2)c1=O [compound 52] | 74% | 98% | 0% | 0% | 21% | 90% | 0% | 98% | 0% | 0% | 16% | –
11 | CC(C)Cn1c(-c2c(F)cccc2F)c(Cl)nc(-n2cccn2)c1=O [Compound 1, 5-Chloro-6-(2,6-difluorophenyl)-1-(2-methylpropyl)-3-(1H-pyrazol-1-yl)-2(1H)-pyrazinone] | – | – | – | – | – | – | – | – | – | – | – | pest or weed control at 200 ppm [1]: 99%; pest or weed control at 200 ppm (Botrytis cinerea): 100%; pest or weed control at 200 ppm (Plasmopara viticola; 200 ppm): 0%; pest or weed control at 200 ppm (Rhizoctonia oryzae; Waitea circinata, in Agrostis stolonifera, topical, 144 h, read-out: Test G disease control rating, 200 ppm): 78%; pest or weed control at 200 ppm (fusarium graminearium): 0%; pest or weed control at 200 ppm [2]: 93%; pest or weed control at 200 ppm (Sclerotinia sclerotiorum): 0%; pest or weed control at 200 ppm [3]: 0%; pest or weed control at 200 ppm (Septoria nodorum): 99%; pest or weed control at 200 ppm (Phytophthora infestans): 0%; pest or weed control at 200 ppm (Pythium aphanidermatum): 0%
12 | Cn1c(-c2ccccc2F)c(Cl)nc(-n2cncn2)c1=O [Compound 15] | 0% | 0% | 0% | 0% | 0% | 0% | 0% | 0% | 0% | 0% | 0% | –
